Experimental data reported in ChEMBL document CHEMBL3425471, “Design, synthesis and biological evaluation of novel pyrazoline-containing derivatives as potential tubulin assembling inhibitors” (Eur J Med Chem, 2015).

How the values were obtained:
[1] = target: Tubulin (Bos taurus, UniProt Q6B856+Q862L2+Q862F3); assay: Inhibition of bovine brain tubulin polymerization after 20 mins by turbidimetric analysis
[2] = tested on: A549; assay: cells; details: Homo sapiens, A549, 24 h
Description: Antiproliferative activity against human A549 cells assessed as reduction in cell viability after 24 hrs by MTT assay

[3] = tested on: MCF7; assay: cells; details: Homo sapiens, MCF7, 24 h
Description: Antiproliferative activity against human MCF7 cells assessed as reduction in cell viability after 24 hrs by MTT assay

[4] = tested on: HepG2; assay: cells; details: Homo sapiens, HepG2, 24 h
Description: Antiproliferative activity against human HepG2 cells assessed as reduction in cell viability after 24 hrs by MTT assay

[5] = tested on: HepG2; assay: Induction of apoptosis in human HepG2 cells assessed as viable cells at 0.01 uM after 24 hrs by AnnexinV-FITC/PI staining based flow cytometry (reference value: 93.0%); format: functional; details: HepG2, 24 h, read-out: Activity
[6] = tested on: HepG2; assay: Induction of apoptosis in human HepG2 cells assessed as early apoptotic cells at 0.01 uM after 24 hrs by AnnexinV-FITC/PI staining based flow cytometry (reference value: 3.89%); format: functional
[7] = tested on: HepG2; assay: Induction of apoptosis in human HepG2 cells assessed as late apoptotic cells at 0.01 uM after 24 hrs by AnnexinV-FITC/PI staining based flow cytometry (reference value: 1.49%); format: functional
[8] = tested on: HepG2; assay: Induction of apoptosis in human HepG2 cells assessed as necrotic cells at 0.01 uM after 24 hrs by AnnexinV-FITC/PI staining based flow cytometry (reference value: 1.63%); format: functional
[9] = tested on: HepG2; assay: Induction of apoptosis in human HepG2 cells assessed as viable cells at 0.03 uM after 24 hrs by AnnexinV-FITC/PI staining based flow cytometry (reference value: 93.0%); format: functional; details: HepG2, 24 h, read-out: Activity
[10] = tested on: HepG2; assay: Induction of apoptosis in human HepG2 cells assessed as early apoptotic cells at 0.03 uM after 24 hrs by AnnexinV-FITC/PI staining based flow cytometry (reference value: 3.89%); format: functional
[11] = tested on: HepG2; assay: Induction of apoptosis in human HepG2 cells assessed as late apoptotic cells at 0.03 uM after 24 hrs by AnnexinV-FITC/PI staining based flow cytometry (reference value: 1.49%); format: functional
[12] = tested on: HepG2; assay: Induction of apoptosis in human HepG2 cells assessed as necrotic cells at 0.03 uM after 24 hrs by AnnexinV-FITC/PI staining based flow cytometry (reference value: 1.63%); format: functional
[13] = tested on: HepG2; assay: Induction of apoptosis in human HepG2 cells assessed as viable cells at 0.05 uM after 24 hrs by AnnexinV-FITC/PI staining based flow cytometry (reference value: 93.0%); format: functional; details: HepG2, 24 h, read-out: Activity
[14] = tested on: HepG2; assay: Induction of apoptosis in human HepG2 cells assessed as early apoptotic cells at 0.05 uM after 24 hrs by AnnexinV-FITC/PI staining based flow cytometry (reference value: 3.89%); format: functional
[15] = tested on: HepG2; assay: Induction of apoptosis in human HepG2 cells assessed as late apoptotic cells at 0.05 uM after 24 hrs by AnnexinV-FITC/PI staining based flow cytometry (reference value: 1.49%); format: functional
[16] = tested on: HepG2; assay: Induction of apoptosis in human HepG2 cells assessed as necrotic cells at 0.05 uM after 24 hrs by AnnexinV-FITC/PI staining based flow cytometry (reference value: 1.63%); format: functional
[17] = tested on: HepG2; assay: Cell cycle arrest in human HepG2 cells assessed as accumulation of cells at G1 phase of cell cycle at 0.01 uM after 48 hrs by propidium iodide staining based flow cytometry (reference value: 75.2%); format: functional
[18] = tested on: HepG2; assay: Cell cycle arrest in human HepG2 cells assessed as accumulation of cells at G2 phase of cell cycle at 0.01 uM after 48 hrs by propidium iodide staining based flow cytometry (reference value: 5.09%); format: functional
[19] = tested on: HepG2; assay: Cell cycle arrest in human HepG2 cells assessed as accumulation of cells at S phase of cell cycle at 0.01 uM after 48 hrs by propidium iodide staining based flow cytometry (reference value: 19.71%); format: functional
[20] = tested on: HepG2; assay: Cell cycle arrest in human HepG2 cells assessed as accumulation of cells at G1 phase of cell cycle at 0.03 uM after 48 hrs by propidium iodide staining based flow cytometry (reference value: 75.2%); format: functional
[21] = tested on: HepG2; assay: Cell cycle arrest in human HepG2 cells assessed as accumulation of cells at G2 phase of cell cycle at 0.03 uM after 48 hrs by propidium iodide staining based flow cytometry (reference value: 5.09%); format: functional
[22] = tested on: HepG2; assay: Cell cycle arrest in human HepG2 cells assessed as accumulation of cells at S phase of cell cycle at 0.03 uM after 48 hrs by propidium iodide staining based flow cytometry (reference value: 19.71%); format: functional
[23] = tested on: HepG2; assay: Cell cycle arrest in human HepG2 cells assessed as accumulation of cells at G1 phase of cell cycle at 0.05 uM after 48 hrs by propidium iodide staining based flow cytometry (reference value: 75.2%); format: functional
[24] = tested on: HepG2; assay: Cell cycle arrest in human HepG2 cells assessed as accumulation of cells at G2 phase of cell cycle at 0.05 uM after 48 hrs by propidium iodide staining based flow cytometry (reference value: 5.09%); format: functional
[25] = tested on: HepG2; assay: Cell cycle arrest in human HepG2 cells assessed as accumulation of cells at S phase of cell cycle at 0.05 uM after 48 hrs by propidium iodide staining based flow cytometry (reference value: 19.71%); format: functional

COc1cccc(C2=NN(C(=O)c3cc(OC)c(OC)c(OC)c3)C(c3ccc4c(c3)OCO4)C2)c1 (configuration not stated) gave an IC50 [1] of 1.91 µM, an IC50 [2] of 0.09 µM and an IC50 [3] of 0.06 µM. For the same molecule, the IC50 [4] was 0.07 µM.

COc1cc(C(=O)N2N=C(c3ccc(C)cc3)CC2c2ccc3c(c2)OCO3)cc(OC)c1OC (configuration not stated) gave an IC50 [1] of 10.11 µM, an IC50 [2] of 1.14 µM and an IC50 [3] of 2.35 µM. The IC50 [4] was 2.91 µM.

COc1ccc(C2=NN(C(=O)c3ccccc3)C(c3ccc4c(c3)OCO4)C2)cc1 (configuration not stated) showed an IC50 [1] of 35.45 µM, an IC50 [2] of 5.21 µM and an IC50 [3] of 5.37 µM. It also gave an IC50 [4] of 6.25 µM.

COc1ccccc1C1=NN(C(=O)c2cc(OC)c(OC)c(OC)c2)C(c2ccc3c(c2)OCO3)C1 (configuration not stated) was tested, and the IC50 [1] was 2.35 µM, the IC50 [2] was 0.11 µM and the IC50 [3] was 0.21 µM. It also gave an IC50 [4] of 0.12 µM.

For Cc1cccc(C2=NN(C(=O)c3ccc(Br)cc3)C(c3ccc4c(c3)OCO4)C2)c1 (configuration not stated), the IC50 [1] was > 40 µM, the IC50 [2] was > 10 µM and the IC50 [3] was > 10 µM. The IC50 [4] was > 10 µM.

COc1ccccc1C1=NN(C(=O)c2ccc(Br)cc2)C(c2ccc3c(c2)OCO3)C1 (configuration not stated) was tested, and the IC50 [1] was > 40 µM, the IC50 [2] was > 10 µM and the IC50 [3] was > 10 µM. The IC50 [4] was > 10 µM.

With COc1cc(C(=O)N2N=C(c3cccc(C)c3)CC2c2ccc3c(c2)OCO3)cc(OC)c1OC (configuration not stated) the IC50 [1] was 7.08 µM, the IC50 [2] was 5.08 µM and the IC50 [3] was 7.34 µM. It also gave an IC50 [4] of 5.17 µM.

COc1cc(C(=O)N2N=C(c3ccc(F)cc3)CC2c2ccc3c(c2)OCO3)cc(OC)c1OC (configuration not stated) was tested, and the IC50 [1] was 7.89 µM, the IC50 [2] was 0.76 µM and the IC50 [3] was 0.32 µM. The IC50 [4] was 0.25 µM.

COc1ccc(/C=C\c2cc(OC)c(OC)c(OC)c2)cc1O [COMBRETASTATIN A4] gave an IC50 [2] of 0.14 µM and an IC50 [4] of 0.17 µM.

COc1cc(C(=O)N2N=C(c3ccccc3)CC2c2ccc3c(c2)OCO3)cc(OC)c1OC (configuration not stated) showed an IC50 [1] of 15.63 µM, an IC50 [2] of 2.19 µM and an IC50 [3] of 3.38 µM. It also gave an IC50 [4] of 2.24 µM.

COc1ccc(C2=NN(C(=O)c3ccc(OC)c(OC)c3)C(c3ccc4c(c3)OCO4)C2)cc1 (configuration not stated) showed an IC50 [1] of 15.73 µM, an IC50 [2] of 2.73 µM and an IC50 [3] of 3.56 µM. The IC50 [4] was 3.77 µM.

In the case of COc1cc(C(=O)N2N=C(c3cc(OC)c(OC)c(OC)c3)CC2c2ccc3c(c2)OCO3)cc(OC)c1OC (configuration not stated), the IC50 [1] is reported as 11.37 µM, the IC50 [2] is reported as 2.23 µM and the IC50 [3] is reported as 3.26 µM. The IC50 [4] was 3.15 µM.

COc1ccc(C2=NN(C(=O)c3ccc(F)cc3)C(c3ccc4c(c3)OCO4)C2)cc1 (configuration not stated) gave an IC50 [1] of 7.69 µM, an IC50 [2] of 1.08 µM and an IC50 [3] of 1.77 µM. It also gave an IC50 [4] of 1.86 µM.

COc1ccc(C2=NN(C(=O)c3cc(OC)c(OC)c(OC)c3)C(c3ccc4c(c3)OCO4)C2)cc1 (configuration not stated) was tested, and the IC50 [1] was 1.88 µM, the viability at 0.01 µM [5] was 91.2% and the Activity [6] was 5.12%. It also gave an Activity [7] of 1.92%, an Activity [8] of 1.75% and a viability at 0.03 µM [9] of 85%. For the same molecule, the Activity [10] was 8.72%, the Activity [11] was 2.52% and the Activity [12] was 3.76%. It also gave a viability at 0.05 µM [13] of 76.4%, an Activity [14] of 13.4% and an Activity [15] of 5.34%. The Activity [16] was 4.86%, the Activity [17] was 68.96% and the Activity [18] was 5.99%. It also gave an Activity [19] of 25.06%, an Activity [20] of 35.62% and an Activity [21] of 50.11%. For the same molecule, the Activity [22] was 14.28%, the Activity [23] was 34.65% and the Activity [24] was 52.2%. For the same molecule, the Activity [25] was 13.14%, the IC50 [2] was 0.07 µM and the IC50 [3] was 0.05 µM. For the same molecule, the IC50 [4] was 0.03 µM.

With COc1ccc(C2=NN(C(=O)c3cccc(OC)c3)C(c3ccc4c(c3)OCO4)C2)cc1 (configuration not stated) the IC50 [1] was 34.77 µM, the IC50 [2] was 6.17 µM and the IC50 [3] was 8.22 µM. It also gave an IC50 [4] of 6.25 µM.

COc1cc(C2=NN(C(=O)c3ccc(Cl)cc3)C(c3ccc4c(c3)OCO4)C2)cc(OC)c1OC (configuration not stated) gave an IC50 [1] of 21.73 µM, an IC50 [2] of 4.26 µM and an IC50 [3] of 4.77 µM. The IC50 [4] was 2.14 µM.

With COc1cc(C2=NN(C(=O)c3ccc(Br)cc3)C(c3ccc4c(c3)OCO4)C2)cc(OC)c1OC (configuration not stated) the IC50 [1] was 25.06 µM, the IC50 [2] was 4.16 µM and the IC50 [3] was 5.26 µM. For the same molecule, the IC50 [4] was 6.22 µM.
